# pIC50: −log10 of the molar value.
# Experiments:
# hEAG2 = target: T1, hEAG2 (Homo sapiens, UniProt Q8NCM2); assay: Whole cell electrophysiology of hEAG2 and GFP cotransfected CHO cells; format: cell-based
# T1 construct: The complete open reading frame of HEAG2 cDNA was cloned into an Invitrogen native expression Gateway entry vector; expressed in transfected cells; host or cells: CHO cells, transient co-transfection with GFP DNA (Lipofectamine Plus)
# T1 sequence (Q8NCM2 1-988): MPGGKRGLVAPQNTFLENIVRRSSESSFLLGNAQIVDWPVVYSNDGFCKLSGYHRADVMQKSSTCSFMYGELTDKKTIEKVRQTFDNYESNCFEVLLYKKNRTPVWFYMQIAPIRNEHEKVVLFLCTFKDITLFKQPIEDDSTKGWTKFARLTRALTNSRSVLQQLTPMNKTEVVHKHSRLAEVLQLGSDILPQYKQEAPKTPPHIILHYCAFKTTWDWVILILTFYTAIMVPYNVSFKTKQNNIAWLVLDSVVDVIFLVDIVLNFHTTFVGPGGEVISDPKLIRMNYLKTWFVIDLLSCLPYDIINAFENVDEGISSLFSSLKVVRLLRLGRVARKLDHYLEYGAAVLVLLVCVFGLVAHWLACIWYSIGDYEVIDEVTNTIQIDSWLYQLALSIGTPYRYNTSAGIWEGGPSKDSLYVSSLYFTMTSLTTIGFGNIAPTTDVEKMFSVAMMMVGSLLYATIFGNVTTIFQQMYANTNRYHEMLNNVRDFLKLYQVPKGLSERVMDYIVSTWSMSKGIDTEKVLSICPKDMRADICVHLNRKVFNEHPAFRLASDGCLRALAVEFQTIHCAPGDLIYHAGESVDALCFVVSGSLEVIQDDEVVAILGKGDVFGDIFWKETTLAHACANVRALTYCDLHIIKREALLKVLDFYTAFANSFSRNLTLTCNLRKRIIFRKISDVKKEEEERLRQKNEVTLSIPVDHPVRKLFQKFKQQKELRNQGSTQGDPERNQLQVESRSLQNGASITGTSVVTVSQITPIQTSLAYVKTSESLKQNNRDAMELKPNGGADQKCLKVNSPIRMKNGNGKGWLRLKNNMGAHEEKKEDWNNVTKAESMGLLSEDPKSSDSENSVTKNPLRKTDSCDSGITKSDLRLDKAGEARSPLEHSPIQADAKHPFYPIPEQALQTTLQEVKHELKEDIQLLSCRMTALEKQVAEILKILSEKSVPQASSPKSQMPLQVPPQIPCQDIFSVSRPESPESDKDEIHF
# Description: CHO cells were plated in growth medium at 10% (1.2×10^5 cells/dish) and 20% (2.4×10^5 cells/dish) confluence in poly-lysine coated 35 mm dishes. After 24 hours, the growth medium was removed, and cells were rinsed with Optimem (Invitrogen # 31985-070), then refed 0.8 ml Optimem. Cells were transiently co-transfected with 0.5 ug hEAG2 DNA in the pDEST vector, and 0.5 ug of GFP DNA using Lipofectamine Plus (Invitrogen # 10964-013). Three hours post transfection, the transfection mix was removed, and cells were refed with 2 ml growth medium. Twenty four hours post transfection, cells were again refed 2 ml fresh growth medium. Cells were used in experiments 24-72 hrs post transfection. Control experiments were performed in CHO cells transiently transfected with 1 μg of GFP DNA. CHO growth medium is Iscove's medium (Invitrogen #12440)+10% FBS, 1× non-essential amino acids(Invitrogen #12383-014) and 1× HT Supplement (Invitrogen #11067-030). All chemicals were purchased from Sigma Chemicals, St. Louis Mo. The internal solution contained (in mM): KCl 130, MgCl2 1, CaCl2 1, HEPES 10, EGTA 10, and was titrated to a pH of 7.2. […] The bath solution contained (in mM) NaCl 140, KCl 4, MgCl2 1, CaCl2 1.8, HEPES 10, Glucose 10, and was titrated to a pH of 7.4. For some experiments the bath solution was modified by the addition of 1 or 5 mM BaCl2, by changing the concentration of MgCl2 to 0 or 10 mM or by reducing NaCl to 104 mM and increasing KCl to 40 mM. During data recording, cells were constantly superfused with bath solution delivered through a fused silica perfusion tip, internal diameter […]. Solution changes were accomplished through the use of a […]16 multichannel perfusion system from AutoMate Scientific, San Francisco Calif. Currents were recorded on an EPC-9 amplifier (HEKA Electronik, Lambrecht/Pfalz, Germany), controlled through the Pulse software package. Currents were sampled at 10 kHz and filtered at 3.3 kHz. Pipettes were constructed from thin walled borosilicate capillary tubing (Warner Instruments Corp., Hamden Conn.), and pulled to a resistance of 1.5-3 MΩ on a P-97 micropipette puller (Sutter Instrument Co., Novato Calif.). All experiments were conducted at 20° C. Following the establishment of a Gigaohm seal and whole cell access, cells were held at -80 mV. […] All stimulation protocols were applied at 0.1 Hz.
# [1] = test system: nigral dopaminergic neurons; conditions: gel foam implants in the striatum; cited from earlier work
# Human lung fibroblasts = assay: Human lung fibroblast proliferation assay (Alamar Blue); format: cell-based; conditions: 3 days in basal medium
# Description: Human lung fibroblasts are obtained from Clonetics (San Diego, Calif.) and maintained in growth media from Clonetics. Dermal microvascular endothelial cells are obtained from Cell Applications (San Diego, Calif.). For proliferation assays, the human lung fibroblasts and dermal microvascular endothelial cells can be cultured at 5,000 cells/well in a 96-well plate for one day in growth medium. The cells are then incubated for one day in 0.1% BSA basal medium. After replacing the medium with fresh 0.1% BSA medium, the cells are incubated with the test proteins for 3 days. Alamar Blue (Alamar Biosciences, Sacramento, Calif.) is added to each well to a final concentration of 10%. The cells are incubated for 4 hr. Cell viability is measured by reading in a CytoFluor fluorescence reader. For the PGE2 assays, the human lung fibroblasts are cultured at 5,000 cells/well in a 96-well plate for one day. […]
# Eag proteins = conditions: intracellular Ca++; read-out: half-maximal inhibition concentration; cited from earlier work
# [2] = picogram quantities, female recipients; cited from earlier work
molecule,measurement,setting,value
"[Mg+2] [Mg^++, MgCl2]",activation rate of the current,hEAG2; Mg^++ free bath (MgCl2 0 mM),much faster
same,activation rate of the current,hEAG2; increased bath Mg^++ (MgCl2 10 mM),dramatically slowed
"FGF-2: Fibroblast growth factor 2 (basic FGF), comparator protein for the polypeptides of the invention",protection of nigral dopaminergic neurons from toxicity associated with MPTP exposure,[1],near complete protection
same,"stimulation of growth of human lung fibroblasts, concentration showing stimulation",Human lung fibroblasts,10 to 2500 ng/mL
[Ca+2] [Ca++],pIC50,Eag proteins,~7.00
C[C@@]12C=CC[C@H]1[C@@H]1CCC3=CC(=O)CC[C@]3(C)[C@H]1CC2 [androstadienone],"nervousness, tension and other negative feelings",[2],significant reduction
"[K+] [K^+, KCl]",tail reversal potential,"hEAG2; increased extracellular K^+ (KCl 40 mM, NaCl 104 mM)",approximately −40 mV
"[Ba+2].[Cl-].[Cl-] [Ba^++, BaCl2]",steady state current,"hEAG2; addition of Ba^++ to the extracellular solution (bath + 1 or 5 mM BaCl2), depolarization to +40 mV for 1 sec, 20° C",apparent reduction

# Source: patent US20030114354A1, “Polynucleotide encoding a novel potassium channel with homology to the ether-a-go-go family, HEAG2” (priority 2001, published 2003)
